Reference: patent US10017509B2, “Macrocylic pyrimidine derivatives” (Janssen Pharmaceutica NV, priority 2014, dated 2018)

What was measured:
EF2K [1] = target: T1, EF2K (Homo sapiens, UniProt O00418); assay: Biochemical EF2K lysate-based kinase assay (AlphaLISA p-eEF2 Thr56); conditions: pIC50 = -log IC50 (M), read-out: eEF2K_C_alphalisa pIC50 (converted)
T1 construct: host or cells: LN-229 cell lysate
T1 sequence (O00418 1-725): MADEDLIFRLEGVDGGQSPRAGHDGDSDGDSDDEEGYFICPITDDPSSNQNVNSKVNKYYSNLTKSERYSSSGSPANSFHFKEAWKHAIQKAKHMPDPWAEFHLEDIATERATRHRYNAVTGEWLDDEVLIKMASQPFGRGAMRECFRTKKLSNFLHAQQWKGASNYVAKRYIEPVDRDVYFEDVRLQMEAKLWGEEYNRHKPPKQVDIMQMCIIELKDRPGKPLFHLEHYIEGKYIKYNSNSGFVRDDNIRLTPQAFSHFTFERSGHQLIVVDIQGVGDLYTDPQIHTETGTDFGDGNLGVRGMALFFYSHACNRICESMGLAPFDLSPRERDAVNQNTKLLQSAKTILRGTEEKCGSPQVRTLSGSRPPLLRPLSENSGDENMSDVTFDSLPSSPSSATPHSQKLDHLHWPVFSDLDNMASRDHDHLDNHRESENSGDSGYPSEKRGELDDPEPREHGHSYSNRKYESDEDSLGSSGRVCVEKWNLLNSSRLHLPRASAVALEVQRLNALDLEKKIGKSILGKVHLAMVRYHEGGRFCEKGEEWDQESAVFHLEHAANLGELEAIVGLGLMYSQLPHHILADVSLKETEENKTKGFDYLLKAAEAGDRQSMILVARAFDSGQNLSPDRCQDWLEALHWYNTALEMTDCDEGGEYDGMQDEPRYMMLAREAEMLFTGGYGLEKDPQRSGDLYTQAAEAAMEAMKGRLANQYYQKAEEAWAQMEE
Description: Biochemical EF2K Lysate-Based Kinase Assay
LN-229 cells were purchased from ATCC (CRL-2611); these are glioblastoma cells. Cell lysates from LN229 were used in this kinase assay to provide both the kinase and the substrate (EF2). The AlphaLISA p-eEF2 (Thr56) detection assay was developed using a sandwich assay format with two specific antibodies recognizing different epitopes of the target, including one antibody against the phosphorylation site of interest. One anti-eEF2 antibody was conjugated onto AlphaLISA Acceptor beads, while the second antibody was biotinylated and captured by streptavidin coated Donor beads.
Compound was mixed with LN-229 cell lysates in the presence of a kinase buffer (e.g. HEPES) at a pH of 6.6, containing 10 mM Mg^2+ (e.g. magnesium acetate) and 10 mM adenosine-tri-phosphate (ATP) and incubated at room temperature for 15 minutes. The kinase reaction was stopped with excess ethylenediaminetetraacetic acid disodium salt and the biotinylated-anti phospho eEF2 antibody (3 nM) was added for 1 hour. Then the anti-EF2 acceptor beads (10 μg/ml) as well as the streptavidin coated donor beads (20 μg/ml) were added for 1 hour, and the AlphaLISA signal was measured in an Envision instrument once, left overnight, and measured again for the final read.
(§1) (pIC50 is −log IC50 where IC50 represents the concentration expressed in M at which the test compound gives 50% inhibition)

EF2K [2] = target: T1, EF2K; assay: EF2K cell-based assay (P-EF2 AlphaLISA, 2-deoxyglucose stimulated MCF10A cells); conditions: 2.5 mM 2-deoxyglucose stimulated, P-EF2 Thr56, pIC50 = -log IC50 (M), read-out: eEF2K_C_PThr56 pIC50 (converted)
Method: In this assay, 2.5 mM 2-deoxyglucose was used to deplete intracellular ATP and activate 5′ adenosine monophosphate-activated protein kinase (AMPK) in the immortalized epithelial breast cell lines, MCF10A. MCF 10A cells were purchased from ATCC (CRL-10317).
MCF10A cells are seeded at a density of 1.25×10^5 Cells/ml at 100 μl/well in a 96-well plate and incubated for 24 hours (37° C., 5% CO2). Compound is added for 1 hour, and cell are stimulated with 2.5 mM of 2-deoxy-glucose for 4 hours. Medium is then removed, and cells are lysed in an ice-cold buffer M-PER (Thermo Scientific, 78501), containing protease and phosphatase inhibitors. P-EF2 levels are determined in these lysates using the P-EF2 AlphaLISA described above.
as §1

[3] = target: Vps34 (PIK3C3 lipid kinase) (Homo sapiens, UniProt Q8NEB9); assay: Biochemical Vps34 lipid kinase assay (ADP-Glo); conditions: for remaining activity at 1 µM: 1 h, single dose 1 μM compound, residual activity compared to control (DMSO), read-out: VPS34_1microM_% of cntrl; for IC50: serial half-log dilution 10 μM to 0.3 nM, pIC50 = -log IC50 (M)
Method: Biochemical Vps34 Lipid Kinase Assay
A non-radiometric kinase assay (ADP-Glo™ Assay, Promega, Madison, Wi, USA) was used for measuring the kinase activity of the PIK3C3 lipid kinase. All kinase assays were performed in 96-well half-area microtiter plates in a 25 μl reaction volume. The reaction cocktail was pipetted in 3 steps in the following order: • 10 μl of ATP solution (in assay buffer, see below) • 5 μl of test sample in 5% DMSO 10 μl of enzyme/substrate mixture
All lipid kinase assays contained 50 mM HEPES (4-(2-hydroxyethyl)-1-piperazineethanesulfonic acid)-NaOH, pH 7.5, 1 mM EGTA ((ethylene glycol tetraacetic acid), 100 mM NaCl, 0.03% CHAPS (3-[(3-Cholamidopropyl)dimethylammonio]-1-propanesulfonate), 2 mM DTT (Dithiothreitol), 20 μM ATP (corresponding to the apparent ATP-Km), kinase (7.6 nM) and substrate (50 μM). The assay for PIK3C3 additionally contained 3 mM MnCl2.
The reaction cocktails were incubated at 30° C. for 60 minutes. The reaction was stopped with 25 μl ADP-Go™ reagent per well. Plates were incubated for 40 minutes at room temperature, followed by addition of 50 μl kinase detection reagent per well and incubation for 60 minutes at room temperature. Signal was determined with a microplate luminescence reader (Victor, Perkin Elmer). The assay was either performed using a single dose of compound (1 μM final concentration in the assay reaction) with resulting data expressed as residual activity compared to control (DMSO), or using a serial (half-log) dilution of compounds starting at 10 μM and down to 0.3 nM (final concentrations in the assay) with data expressed as the pIC50.
as §1

Vps34 (PIK3C3 lipid kinase), sequence (Q8NEB9 whole entry, species assumed): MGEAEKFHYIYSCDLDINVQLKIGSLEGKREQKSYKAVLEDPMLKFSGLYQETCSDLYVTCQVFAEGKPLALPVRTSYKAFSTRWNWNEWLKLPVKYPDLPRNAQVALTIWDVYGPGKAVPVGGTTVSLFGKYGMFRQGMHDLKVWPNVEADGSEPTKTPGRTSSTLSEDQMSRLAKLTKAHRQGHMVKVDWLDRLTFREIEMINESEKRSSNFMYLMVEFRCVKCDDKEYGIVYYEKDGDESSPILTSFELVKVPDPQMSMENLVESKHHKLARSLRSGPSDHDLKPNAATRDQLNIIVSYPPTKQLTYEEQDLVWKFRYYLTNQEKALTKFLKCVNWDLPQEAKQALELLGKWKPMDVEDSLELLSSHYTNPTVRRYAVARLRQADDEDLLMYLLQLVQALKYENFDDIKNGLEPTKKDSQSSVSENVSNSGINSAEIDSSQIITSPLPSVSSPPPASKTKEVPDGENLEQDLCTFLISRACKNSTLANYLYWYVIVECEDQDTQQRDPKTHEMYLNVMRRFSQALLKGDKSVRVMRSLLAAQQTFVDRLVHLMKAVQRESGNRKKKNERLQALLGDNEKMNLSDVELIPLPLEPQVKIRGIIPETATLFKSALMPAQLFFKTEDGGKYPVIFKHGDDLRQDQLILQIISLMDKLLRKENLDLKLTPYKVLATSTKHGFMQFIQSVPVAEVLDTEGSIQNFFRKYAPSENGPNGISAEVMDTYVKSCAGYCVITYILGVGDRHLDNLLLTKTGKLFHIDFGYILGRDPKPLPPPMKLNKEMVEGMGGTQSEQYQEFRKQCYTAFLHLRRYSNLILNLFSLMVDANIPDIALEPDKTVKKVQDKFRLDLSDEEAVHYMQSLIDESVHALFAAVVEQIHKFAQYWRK

Row | Compound | IC50 (EF2K [1]) [M] | IC50 (EF2K [2]) [M] | remaining activity at 1 µM [3] [%] | IC50 [3] [M]
1 | O=C1CN2CCN(CC2)Cc2cc(ccc2F)Nc2nccc(n2)-c2ccc(nc2)NCCCN1 [Compound 2] | 6.31e-08 | 5.75e-06 | 4.44 | 1e-07
2 | CN1CCCN(C)c2ccc(cn2)-c2ccnc(n2)Nc2ccnc(c2)CN2CCN(CC2)CC1=O [Compound 32] | 1.17e-07 | 5.13e-06 | 11.1 | 1.45e-07
3 | CN1CCCN(C)c2ccc(cn2)-c2ccnc(n2)Nc2cccc(c2)CN2CCN(CC1=O)CC2CO (stereo not drawn) [Compound 51] | 1.55e-07 | 1.55e-05 | 14.6 | 4.79e-07
4 | O=C1CN2CCN(CC2)Cc2ccc(F)c(c2)Nc2nccc(n2)-c2ccc(nc2)NCCCN1 [Compound 3] | 1.66e-06 | > 3.02e-05 | 4.43 | 6.76e-08
5 | CN1CCCN(C)c2ccc(cn2)-c2ccnc(n2)Nc2cccc(c2)C(=O)N2CCN(CC2)CC1=O [Compound 28] | ~5.5e-08 | > 3.02e-05 | 45.6 | –
6 | CC1CN2CCN1Cc1cccc(c1)Nc1nccc(n1)-c1ccc(nc1)NCCCNC(=O)C2 (stereo not drawn) [Compound 60] | 1.78e-07 | 2.75e-06 | 6.55 | 6.46e-08
7 | O=C1CN2CCCN(CC2)Cc2cccc(c2)Nc2nccc(n2)-c2ccc(nc2)NCCCN1 [Compound 56] | 4.07e-06 | 4.47e-06 | 3.19 | 1.26e-08
8 | O=C1CN2CCN(CC2)Cc2cccc(c2)Nc2nccc(n2)-c2ccc(nc2)NCC(O)CN1 (stereo not drawn) [Compound 23] | 5.01e-07 | 2.24e-05 | 7.45 | 1.51e-07
9 | NC(=O)c1ccc2cc1CN1CCN(CC1)CC(=O)NCCCNc1ccc(cn1)-c1ccnc(n1)N2 [Compound 15] | 6.03e-07 | 2.75e-05 | 1.07 | 5.01e-08
10 | CN(C)C(=O)c1ccc2cc1CN1CCN(CC1)CC(=O)N(C)CCCN(C)c1ccc(cn1)-c1ccnc(n1)N2 [Compound 17] | 1.1e-06 | > 3.02e-05 | 39.5 | –
11 | CN1CCCN(C)c2ccc(cn2)-c2ccnc(n2)Nc2cccc(c2)CN2CCN(CC1=O)C(CCO)C2 (stereo not drawn) [Compound 63] | 2.4e-07 | > 3.02e-05 | 16.4 | 3.24e-07
12 | O=C1CN2CCN(CC2)Cc2cccc(c2)Nc2nccc(n2)-c2ccc(nc2)CN(CCOCC(F)(F)F)CCN1 [Compound 41] | ~4.47e-07 | 1.78e-06 | 30.8 | –
13 | CC(C)CN1CCNC(=O)CN2CCN(CC2)Cc2cccc(c2)Nc2nccc(n2)-c2ccc(nc2)C1 [Compound 38] | 8.91e-09 | 1.86e-07 | – | 7.76e-08
14 | C=CCN1CCNC(=O)CN2CCN(CC2)Cc2cccc(c2)Nc2nccc(n2)-c2ccc(nc2)C1 [Compound 45] | 7.94e-09 | 2.19e-07 | – | 1.66e-07
15 | CN1CCN(C)c2ccc(cn2)-c2ccnc(n2)Nc2cccc(c2)CN2CCNC(C2)C1=O (stereo not drawn) [Compound 68] | 2e-05 | – | 28.4 | 7.76e-07

Further lines, results first:

Row | IC50 (EF2K [1]) [M] | IC50 (EF2K [2]) [M] | remaining activity at 1 µM [3] [%] | IC50 [3] [M] | Compound
16 | 1.7e-07 | 2.04e-05 | 29.4 | 7.76e-07 | COCCOCC1CN2CCN1Cc1cccc(c1)Nc1nccc(n1)-c1ccc(nc1)N(C)CCCN(C)C(=O)C2 (stereo not drawn) [Compound 101]
17 | 3.39e-07 | > 3.02e-05 | 10.8 | 4.07e-07 | CN1CCCN(C)c2ccc(cn2)-c2ccnc(n2)Nc2cccc(c2)CN2CCN(CC1=O)C(=O)C2 [Compound 82]
18 | 7.59e-06 | > 3.02e-05 | 12 | 1.74e-08 | CN1CCN2Cc3cccc(c3)Nc3nccc(n3)-c3ccc(nc3)NCCCNC(=O)CC1C2 (stereo not drawn) [Compound 71]
19 | 1.82e-06 | 2.63e-05 | 5.81 | 1.02e-07 | CN1CCCN(C)c2ccc(cn2)-c2ccnc(n2)Nc2cccc(c2)CN2CCNC(CC1=O)C2 (stereo not drawn) [Compound 128]
20 | 1.17e-08 | 1.41e-06 | – | 5.13e-06 | O=C1CN2CCN(CC2)Cc2cccc(c2)Nc2nccc(n2)-c2ccc(nc2)N2CC(O)CC2CCN1 (single isomer, unassigned) [Compound 91]
21 | 2.04e-05 | – | 20.7 | 4.79e-07 | CN1CCCN(C)c2ccc(cn2)-c2ccnc(n2)Nc2cccc(c2)CN2CCNC(C2)C1=O (stereo not drawn) [Compound 74]
22 | 1.82e-06 | > 3.02e-05 | 19.6 | 4.07e-07 | CN1CCN(C)c2ccc(cn2)-c2ccnc(n2)Nc2cccc(c2)CN2CCN(C)C(CC1=O)C2 (stereo not drawn) [Compound 73]
23 | 6.76e-09 | 1.26e-06 | – | 1.32e-07 | O=C1CN2CCN(CC2)Cc2cccc(c2)Nc2nccc(n2)-c2ccc(nc2)N2CC(O)CC2CCN1 (single isomer, unassigned) [Compound 96]
24 | > 3.02e-05 | – | 22.8 | 2.24e-06 | CN1CCN(C)c2ccc(cn2)-c2ccnc(n2)Nc2cccc(c2)CN2CCN(C)C(C2)C1=O (stereo not drawn) [Compound 69]
25 | 2.88e-07 | 8.71e-06 | 30.6 | – | CN1CCCN(C)c2ncc(cn2)-c2ccnc(n2)Nc2cccc(c2)CN2CCN(CC2)CC1=O [Compound 84]
26 | 3.89e-06 | 7.41e-06 | 6.25 | 6.03e-08 | O=C1CNCCCNc2ccc(cn2)-c2ccnc(n2)Nc2cccc(c2)CN2CCN1CC2 [Compound 112]
27 | 2.14e-07 | > 3.02e-05 | 6.01 | 1.51e-07 | O=C1CN2CCC(CC2)Cc2cccc(c2)Nc2nccc(n2)-c2ccc(nc2)NCCCN1 [Compound 115]
28 | 2.34e-07 | – | 8.71 | 3.47e-07 | CN1CCCN(C)c2ccc(cn2)-c2ccnc(n2)Nc2cccc(c2)CN2CCN(CC2)C1=O [Compound 76]
29 | 1.78e-05 | – | 34.1 | – | CC(C)N1CCN(C(C)C)c2ccc(cn2)-c2ccnc(n2)Nc2cccc(c2)CN2CCN(CC2)CC1=O [Compound 121]
